Entries after “also recorded” stand apart in the source; their conditions may differ.
Key:
[1] = system: EAEC T6SS+ killing of E. coli K-12 W3110 prey; assay: Antibacterial growth competition assay (EAEC attacker vs E. coli prey); assay type: cell-based, enteroaggregative Escherichia coli (EAEC); settings: 1 mM BCP added directly to competition mixture, 4 h at 37°C, CFU enumeration
Experimental: Based on the BCP ability to bind to TssK and to limit the in vitro binding of the TssFGE wedge components onto TssK, we evaluated its T6SS interference potential on bacteria. We set up a competition experiment between EAEC (predator, T6SS^+) and E. coli (prey, T6SS^−) strains (see Materials and Methods) in the presence or absence of the BCP. Incubation of cells with 1 mM BCP is accompanied by a drastic decrease of prey cells number, similar to what is observed in the absence of BCP. […] To test this hypothesis, we developed a protocol favoring BCP entry into bacterial cells without any electroporation or chemical steps likely to impair T6SS activity (see Materials and Methods).
The antibacterial growth competition assay was performed as previously described ([100]). Wild-type E. coli K-12 strain W3110 bearing the pUA66-rrnB plasmid (conferring kanamycin resistance and constitutive GFP fluorescence, with the gfp gene under the control of the ribosomal rrnB promoter) ([101]) was used as the recipient. Attacker and recipient cells were grown for 16 h in LB medium, diluted in SIM medium to allow maximal expression of the sci-1 gene cluster. Once the culture reached an A600 of ∼0.8, cells were harvested and normalized, and drops of the mixture were spotted in triplicate onto a prewarmed dry SIM agar plate with or without the addition of 0.5 mg ml^−1 arabinose. […]

[2] = NMR of the free cyclic peptide; assay type: physicochemical; settings: 1H-NOESY, 1.8 mM peptide, 50 mM KPO4 pH 6.9, 150 mM NaCl, 300 K
Experimental: (§1) All NMR experiments were recorded at 300 K on a Bruker Avance-II 600 MHz spectrometer equipped with a cryoprobe at the IMM (Institut de Microbiologie de la Mediterranée) NMR platform. The 450-μl peptide sample tube was prepared at 1.8 mM in KPO4 buffer (50 mM KPO4 [pH 6.9], 150 mM NaCl) complemented with 30 μl D2O. 1D ^1H-^1H-TOCSY, ^1H-NOESY, and ^1H-^15N HSQC spectra (F2 = 2048; F1 = 128; NS = 384) (NS is the number of scans [accumulation] for the experiment; F2 is the sweep width; F1 is the Fourier number that defines the 2D spectrum dimensions and its digital resolution) were recorded using default pulse sequences as provided by the manufacturer. For the peptide-TssK interaction experiments, 200 μl of a 410 μM stock of TssK was added to the same sample tube (1.2 mM peptide and 140 μM TssK [final concentration]), and all NMR spectra were recorded with the addition of longer ^1H-^15N HSQC spectrometry (NS = 1,024). All spectra were transformed and the figures were generated using Bruker Topspin 4.0.9.

TssK = assay: NMR peptide-TssK interaction (1H-15N HSQC, 1D 1H); assay type: binding, enteroaggregative Escherichia coli (EAEC)
Experimental: as §1

TssK-L14A = assay: Isothermal titration calorimetry (ITC), TssK-L14A variant; assay type: binding, enteroaggregative Escherichia coli (EAEC); settings: 25 μM TssK-L14A, 1 mM wild-type BCP, 50 mM HEPES pH 7.0, 150 mM NaCl, 25°C
Experimental: To evaluate the direct interaction between the BCP and its target TssK, we performed isothermal titration calorimetry (ITC) experiments. The wild-type BCP and TssK interact with an observable affinity (KD) of 60 μM (Fig. 5A).
The working buffer for both proteins and peptide was 50 mM HEPES (pH 7.0), 150 mM NaCl to avoid buffer mismatch. The experiments were performed at 25°C using the MicroCal PEAQ-ITC instrument (Malvern Panalyticals, Malvern, UK) in duplicate with 19 injections, first with an initial injection of 0.4 μl followed by 18 injections of 2 μl. Two assays were performed. In the first, 25 μM WT TssK ligand was in the cell and 1 mM WT BCP analyte was in the syringe. In the second, 25 μM TssK L14A ligand was in the cell and 1 mM WT BCP analyte was in the syringe. The reaction was performed with a constant stirring speed of 750 rpm; each injection lasted for 4 s with a 150-s space between injections. A constant heat control (offset) was removed from the raw data to account for heat dilution before integration. The data were fitted using the One Set of Sites model in the PEAQ-ITC analysis software.

SRPVMG-SRPVMG-SRPVMG (head to tail) [BCP, biomimetic cyclic peptide SRPVMG-SRPVMG-SRPVMG mimicking TssG foot 1]
effect on killing ability of EAEC (prey survival) [1]: does not affect the killing ability of EAEC
3D folding / internal structure of free peptide [2]: absence of an internal structure of the free peptide
1H-15N HSQC correlations after addition of TssK (TssK; 1 part TssK to 10 parts BCP (1.2 mM peptide, 140 μM TssK), 50 mM KPO4 pH 6.9, 150 mM NaCl, 300 K): totally disappear
1D 1H NMR peptide peaks after addition of TssK (TssK; 1 part TssK to 10 parts BCP, pH 6.9, 300 K): strong broadening of the peptides peaks
ITC binding signal with TssK-L14A (TssK-L14A): None of these conditions led to a detectable ITC binding signal; also recorded: lack of binding
